From US10633423B2, “IL-6-binding polypeptide complex” (AFFIBODY AB, priority 2014, dated 2020)
Blank lines part the entries; values can stand above or below the substance they belong to.

How the values were obtained:
[1] = system: IL-6 trans-signaling in human umbilical vein endothelial cells (HUVECs); experiment: HUVEC trans-signaling assay, MCP-1 readout; type: cell-based; conditions: Z variants fused to ABD variant PP013
Procedure: To address the trans-signaling pathway, a second assay was used. Herein, human umbilical vein endothelial cells (HUVECs) were stimulated with hIL-6 and soluble hIL-6Rα and the readout was the production of monocyte chemoattractant protein-1 (MCP-1). HUVECs (Lonza) were grown in EGM-2 bullet kit media (Lonza) and passaged in culture no more than eight times. Cells were grown until 75% confluence before use. Cells were detached using trypsin/EDTA (Lonza), resuspended and washed once in fresh medium. Next, cells were counted and dispensed into 96 well flat bottom plates at a density of 2×10^4 cells per well. Cells were cultured overnight at 37° C. in a humidified 5% CO2 atmosphere. […] The pre-mixed solutions with the test molecules and hIL-6/hIL-6Rα were then transferred to wells containing HUVECs, which were incubated for 24 h at 37° C. in a humidified 5% CO2 atmosphere. Cell free supernatant was collected after the incubation period and human MCP-1 levels were determined by sandwich ELISA using the MCP-1 Duoset ELISA development system (R&D Systems).
Half area 96-well ELISA plates were coated with anti-MCP-1 capture antibody (R&D Systems) at a concentration of 1 μg/ml. Plates were incubated overnight at 4° C., washed twice in tap water and blocked for 1 h in PBSC. […] The absorbance was measured at 450 nm using a microplate reader (Victor^3, Perkin Elmer).

TNF = biological target: T1, TNF (Homo sapiens, UniProt P01375); experiment: ELISA binding activity of matured complexes, TNF (Example 13); conditions: approximate; plates coated with 0.5 μg/ml TNF
T1 construct: purchased R&D Systems
Procedure: The binding of TNF and IL-6 targeting complexes was analyzed in an ELISA assay. Half-area 96-well ELISA plates were directly coated at 4° C. overnight with 0.5 μg/ml of TNF or IL-6 in PBS buffer and the wells were blocked with 100 μl of 3% skim milk/PBS (137 mM NaCl, 2.7 mM KCl, 10 mM Na2HPO4, 1.8 mM KH2PO4) for 1 h at RT. Next, 30 μl of serially diluted complexes and control antibodies from a starting concentration of 1 μg/ml in 3% skim milk/PBS were added to each well. The plates were incubated for 2 h at RT followed by washing four times with PBST 0.05%. HRP conjugated anti-human IgG Fc secondary antibody (Pierce, cat. no. 31423) was diluted 1:5000 in 3% skim milk/PBS and added to the wells followed by 1 h incubation. After washing as described above, 30 μl ImmunoPure TMB substrate (Pierce, cat. no. 34014) was added to the wells and the plates were treated according to the manufacturer's recommendations. Adalimumab (Abbvie, LOT4435XH04) was used as a positive control for the TNF binding activity and as a negative control for the IL-6 binding activity. Furthermore, an irrelevant IgG (Jackson Immunoresearch, cat. no. Jac-009-000-003) was included as a negative control in both assays.

[2] = RA patients, monotherapy, Gabay et al 2013; cited from earlier work
[3] = system: IL-6/TNF-dependent proliferation of TF-1 cells; experiment: TF-1 cell assay, stimulated with both IL-6 and TNF (Example 11); type: cell-based, human; conditions: TF-1 cells simultaneously stimulated with IL-6 and TNF
Procedure: TF-1 cells were cultured in RPMI1640 with L-glut (Lonza) supplemented with 10% FCS (Gibco), Pen-Strep (Lonza) and 2 ng/ml rhGM-CSF (R&D Systems). Prior to use, the cells were washed twice in RPMI1640 in the absence of rhGM-CSF. Cells were then counted and dispensed into 96 well flat bottomed plates at a density of 4×10^4 cells per well. […] The samples were incubated in the presence of either 0.099 nM rhIL-6 (R&D Systems, cat. no. 206-IL/CF), 0.023 nM rhTNF (R&D Systems, cat. no. 210-TA) or a combination of both cytokines. The pre-mixtures were transferred to wells containing TF-1 cells which were incubated for 72 h at 37° C. in a humidified 5% CO2 atmosphere. During the last four hours of incubation, 10 μl of CCK-8 (Fluka, Sigma Aldrich) was added per well to determine the number of proliferating cells. The absorbance was measured at 450 nm (Abs450) using a microplate reader (VICTOR^3, Perkin Elmer). The data on cell growth was assessed by non-linear regression to a four-parameter dose-response curve, and the half maximal inhibitory concentration (IC50) was determined using GraphPad Prism program. The inhibition of IL-6/TNF-dependent proliferation of TF-1 cells by the inhibitory molecules was as Abs450 minus control wells that contained cells but no IL-6.

T1 sequence (P01375 77-233 limits assumed): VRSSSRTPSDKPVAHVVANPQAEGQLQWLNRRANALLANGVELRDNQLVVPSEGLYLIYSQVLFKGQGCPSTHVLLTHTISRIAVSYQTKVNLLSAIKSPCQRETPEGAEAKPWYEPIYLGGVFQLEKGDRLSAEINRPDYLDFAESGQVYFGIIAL

Substance: Z03638: control Z variant binding an irrelevant target; tested in fusion with ABD variant PP013 [reference compound]
inhibition of IL-6 mediated trans-signaling [1]: did not

EC50 (TNF): 0.077 nM
Substance: Adalimumab

Substance: tocilizumab
reduction of RA-related symptoms [2]: more effective than adalimumab

Substance: His6-Z04726: negative control Z variant Z04726 (SEQ ID NO:1553) with N-terminal His6-tag [reference compound]
blocking of TF-1 cell growth [3]: No effect
